Test results as given in ChEMBL document CHEMBL5113383, “Application of the All-Hydrocarbon Stapling Technique in the Design of Membrane-Active Peptides” (J Med Chem, 2022).
Positions of bridges follow the written chain, without caps; N, C: chain ends. Non-standard residues stand in square brackets, D forms with d. Residues, ends and D or L forms follow the SMILES beside them. *: point of attachment. X2 = C[C@@H]1O[C@H](*)[C@@H](O)[C@H](O)[C@@H]1O; X1 = O[C@H]1[C@H](O)[C@@H](*)OC[C@H]1O; R8 = C=CCCCCCC[C@@](C)(N)C(=O)O; R5 = C=CCCC[C@@](C)(N)C(=O)O; S5 = C=CCCC[C@](C)(N)C(=O)O; Nle = CCCC[C@H](N)C(=O)O; Orn = NCCC[C@H](N)C(=O)O

What was measured:
Nakaseomyces glabratus [1] = test: Antimicrobial activity against Candida glabrata 896; type: functional
Candida albicans [2] = test: Antimicrobial activity against Candida albicans 904; type: functional
[Candida] auris [3] = Antimicrobial activity against Candida auris 919; type: functional; settings: Candidozyma auris
Candida albicans [4] = test: Antimicrobial activity against Candida albicans SC5314; type: functional
Candida tropicalis [5] = test: Antimicrobial activity against Candida tropicalis ATCC 20026; type: functional
Pichia kudriavzevii = test: Antimicrobial activity against Candida krusei ATCC 2340; type: functional
Nakaseomyces glabratus [6] = test: Antimicrobial activity against Candida glabrata ATCC 1182; type: functional
Candida tropicalis [7] = test: Antimicrobial activity against Candida tropicalis 895; type: functional
[Candida] auris [8] = Antimicrobial activity against Candida auris 918; type: functional; settings: Candidozyma auris
Candida parapsilosis = test: Antimicrobial activity against Candida parapsilosis ATCC 22010; type: functional; settings: Lodderomyces parapsilosis
Candida albicans [9] = test: Antimicrobial activity against Candida albicans 901; type: functional
[10] = Hemolytic activity in human erythrocytes incubated for 1 hr; type: toxicity, cell-based, Erythrocyte; settings: for hemolysis at 1 h: read-out: Activity

Row | Compound | HC50 at 1 h [10] [µM] | other results
1 | CC[C@H](C)[C@H](NC(=O)[C@H](CC(=O)O)NC(=O)[C@H](Cc1ccccc1)NC(=O)[C@H](CC(C)C)NC(=O)CN)C(=O)N[C@H](C(=O)N[C@@H](CCCCN)C(=O)N[C@@]1(C)CCC/C=C\CCC[C@@](C)(C(=O)N[C@@H](Cc2ccccc2)C(N)=O)NC(=O)[C@H](CCC(=O)O)NC(=O)[C@H](C)NC(=O)[C@H]([C@@H](C)CC)NC1=O)[C@@H](C)CC (H-GLFDIIK[S5]IAE[S5]F-NH2; staple (Z) 8-12) | – | MIC (Nakaseomyces glabratus [1]): > 128 µg/mL; MIC (Candida albicans [2]): > 128 µg/mL; MIC ([Candida] auris [3]): > 128 µg/mL; MIC (Candida albicans [4]): > 64 µg/mL; MIC (Candida tropicalis [5]): > 128 µg/mL; MIC (Pichia kudriavzevii): > 128 µg/mL; MIC (Nakaseomyces glabratus [6]): > 128 µg/mL; MIC (Candida tropicalis [7]): > 128 µg/mL; MIC ([Candida] auris [8]): > 128 µg/mL; MIC (Candida parapsilosis): > 128 µg/mL; MIC (Candida albicans [9]): > 128 µg/mL
2 | CC[C@H](C)[C@H](NC(=O)[C@H](CCCCN)NC(=O)CNC(=O)[C@H](CC(C)C)NC(=O)[C@]1(C)CCC/C=C\CCC[C@](C)(NC(=O)[C@@H](N)C(C)C)C(=O)N[C@@H](Cc2c[nH]c3ccccc23)C(=O)N[C@@H](CCCCN)C(=O)N[C@@H](CCCCN)C(=O)N1)C(=O)N[C@H](C(=O)N[C@@H](CCCCN)C(=O)N[C@H](C(=O)N[C@H](C(=O)N[C@@H](CCCCN)C(N)=O)C(C)C)C(C)C)[C@@H](C)CC (H-V[S5]WKK[S5]LGKIIKVVK-NH2; staple (Z) 2-6) | 30 | –
3 | CC[C@H](C)[C@H](NC(=O)CN)C(=O)N[C@@H](CCSC)C(=O)N[C@@H](CO[C@H]1OC[C@@H](O)[C@@H](O)[C@@H]1O)C(=O)N[C@@H](CO)C(=O)N[C@@H](CC(C)C)C(=O)N[C@@H](CCSC)C(=O)N[C@@H](CCCCN)C(=O)N[C@@H](CCCCN)C(=O)N[C@@H](CC(C)C)C(=O)N[C@@]1(C)CCC/C=C\CCC[C@@](C)(C(=O)N[C@@H](CCCCN)C(N)=O)NC(=O)[C@H]([C@@H](C)CC)NC(=O)[C@H](Cc2cnc[nH]2)NC(=O)[C@H](C)NC1=O (H-GIMS(X1)SLMKKL[S5]AHI[S5]K-NH2; staple (Z) 11-15) | > 400 | –
4 | CCCC[C@@H]1NC(=O)[C@@](C)(NC(=O)[C@H](CCCCN)NC(=O)[C@@H]2CCCN2C(=O)[C@H](CC(C)C)NC(=O)[C@]2(C)CCC/C=C\CCC[C@](C)(NC(=O)[C@H](CO)NC(=O)[C@H](CC(C)C)NC(=O)[C@H](Cc3ccccc3)NC(=O)CN)C(=O)N[C@@H](CC(C)C)C(=O)N[C@@H](CCCN)C(=O)N[C@@H](CCCCN)C(=O)N2)CCC/C=C\CCC[C@@](C)(C(=O)N[C@@H](CCCCN)C(N)=O)NC(=O)[C@H](Cc2cnc[nH]2)NC(=O)[C@H](C)NC1=O (H-GFLS[S5]L[Orn]K[S5]LPK[S5][Nle]AH[S5]K-NH2; staple (Z) 5-9, 13-17) | 13.9 | –
5 | CC[C@H](C)[C@@H]1NC(=O)[C@H](CCCCN)NC(=O)[C@H](CCCCN)NC(=O)[C@](C)(NC(=O)[C@H](CC(N)=O)NC(=O)[C@@H](N)C(C)C)CCCCCC/C=C\CCC[C@@](C)(C(=O)N[C@H](C(=O)N[C@@H](CCCCN)C(=O)N[C@H](C(=O)N[C@H](C(=O)N[C@@H](CCCCN)C(N)=O)C(C)C)C(C)C)[C@@H](C)CC)NC(=O)[C@H](CCCCN)NC(=O)CNC(=O)[C@H](CC(C)C)NC1=O (H-VN[R8]KKILGK[S5]IKVVK-NH2; staple (Z) 3-10) | 100 | –
6 | H-GIMSSLMKKLAAHIAK-NH2 | > 400 | –
7 | CC[C@H](C)[C@H](NC(=O)CN)C(=O)N[C@@H](CCSC)C(=O)N[C@@H](CO[C@H]1O[C@@H](C)[C@@H](O)[C@@H](O)[C@@H]1O)C(=O)N[C@@H](CO)C(=O)N[C@@H](CC(C)C)C(=O)N[C@@H](CCSC)C(=O)N[C@@H](CCCCN)C(=O)N[C@@H](CCCCN)C(=O)N[C@@H](CC(C)C)C(=O)N[C@@]1(C)CCC/C=C\CCC[C@@](C)(C(=O)N[C@@H](CCCCN)C(N)=O)NC(=O)[C@H]([C@@H](C)CC)NC(=O)[C@H](Cc2cnc[nH]2)NC(=O)[C@H](C)NC1=O (H-GIMS(X2)SLMKKL[S5]AHI[S5]K-NH2; staple (Z) 11-15) | > 400 | –
8 | CCCC[C@H](NC(=O)[C@H](Cc1cnc[nH]1)NC(=O)[C@H](C)NC(=O)[C@H](CCCC)NC(=O)[C@@H](NC(=O)[C@H](CCCCN)NC(=O)[C@@H]1CCCN1C(=O)[C@H](CC(C)C)NC(=O)[C@@H](NC(=O)[C@H](CCCCN)NC(=O)[C@H](CCCCN)NC(=O)[C@H](CC(C)C)NC(=O)[C@@H](NC(=O)[C@H](CO)NC(=O)[C@H](CC(C)C)NC(=O)[C@H](Cc1ccccc1)NC(=O)CN)[C@@H](C)CC)C(C)C)C(C)C)C(=O)N[C@@H](CCCCN)C(N)=O (H-GFLSILKKVLPKV[Nle]AH[Nle]K-NH2) | 50 | –
9 | CC[C@H](C)[C@H](NC(=O)CN)C(=O)NCC(=O)N[C@@H](CCCCN)C(=O)N[C@@H](Cc1ccccc1)C(=O)N[C@@H](CC(C)C)C(=O)N[C@@H](Cc1cnc[nH]1)C(=O)N[C@@H](CO)C(=O)N[C@@H](C)C(=O)N[C@@H](CCCCN)C(=O)N[C@@H](CCCCN)C(=O)N[C@@H](Cc1ccccc1)C(=O)NCC(=O)N[C@@H](CCCCN)C(=O)N[C@@H](C)C(=O)N[C@@H](Cc1ccccc1)C(=O)N[C@@]1(C)CCC/C=C\CCC[C@@](C)(C(=O)N[C@@H](CC(N)=O)C(=O)N[C@@H](CO)C(N)=O)NC(=O)[C@H]([C@@H](C)CC)NC(=O)[C@H](CCC(=O)O)NC(=O)CNC1=O (H-GIGKFLHSAKKFGKAF[S5]GEI[S5]NS-NH2; staple (Z) 17-21) | – | hemolysis at 1 h [10]: < 10%
10 | CCCC[C@@H]1NC(=O)[C@@](C)(NC(=O)[C@H](CCCCN)NC(=O)[C@@H]2CCCN2C(=O)[C@H](CC(C)C)NC(=O)[C@@H](NC(=O)[C@H](CCCCN)NC(=O)[C@H](CCCCN)NC(=O)[C@H](CC(C)C)NC(=O)[C@@H](NC(=O)[C@H](CO)NC(=O)[C@H](CC(C)C)NC(=O)[C@H](Cc2ccccc2)NC(=O)CN)[C@@H](C)CC)C(C)C)CCC/C=C\CCC[C@@](C)(C(=O)N[C@@H](CCCCN)C(N)=O)NC(=O)[C@H](Cc2cnc[nH]2)NC(=O)[C@H](C)NC1=O (H-GFLSILKKVLPK[S5][Nle]AH[S5]K-NH2; staple (Z) 13-17) | 18.1 | –
11 | CCCC[C@H](NC(=O)[C@H](Cc1cnc[nH]1)NC(=O)[C@H](C)NC(=O)[C@H](CCCC)NC(=O)[C@@H](NC(=O)[C@H](CCCCN)NC(=O)[C@@H]1CCCN1C(=O)[C@H](CC(C)C)NC(=O)[C@@]1(C)CCC/C=C\CCC[C@](C)(NC(=O)[C@H](CO)NC(=O)[C@H](CC(C)C)NC(=O)[C@H](Cc2ccccc2)NC(=O)CN)C(=O)N[C@@H](CC(C)C)C(=O)N[C@@H](CCCCN)C(=O)N[C@@H](CCCCN)C(=O)N1)C(C)C)C(=O)N[C@@H](CCCCN)C(N)=O (H-GFLS[S5]LKK[R5]LPKV[Nle]AH[Nle]K-NH2; staple (Z) 5-9) | 14.7 | –
12 | CC[C@H](C)[C@H](NC(=O)[C@H](CCCCN)NC(=O)[C@H](CCCCN)NC(=O)[C@H](Cc1c[nH]c2ccccc12)NC(=O)[C@H](CC(N)=O)NC(=O)[C@@H](N)C(C)C)C(=O)N[C@@H](CC(C)C)C(=O)NCC(=O)N[C@@H](CCCCN)C(=O)N[C@@]1(C)CCC/C=C\CCC[C@@](C)(C(=O)N[C@@H](CCCCN)C(N)=O)NC(=O)[C@H](C(C)C)NC(=O)[C@H](CCCCN)NC(=O)[C@H]([C@@H](C)CC)NC1=O (H-VNWKKILGK[S5]IKV[S5]K-NH2; staple (Z) 10-14) | 69 | –
13 | CCCC[C@H](NC(=O)[C@H](Cc1cnc[nH]1)NC(=O)[C@H](C)NC(=O)[C@H](CCCC)NC(=O)[C@@H](NC(=O)[C@H](CCCCN)NC(=O)[C@@H]1CCCN1C(=O)[C@]1(C)CCC/C=C\CCCCCC[C@@](C)(NC(=O)[C@H](Cc2ccccc2)NC(=O)CN)C(=O)N[C@@H](CO)C(=O)N[C@@H]([C@@H](C)CC)C(=O)N[C@@H](CC(C)C)C(=O)N[C@@H](CCCCN)C(=O)N[C@@H](CCCCN)C(=O)N[C@@H](C(C)C)C(=O)N1)C(C)C)C(=O)N[C@@H](CCCCN)C(N)=O (H-GF[R8]SILKKV[S5]PKV[Nle]AH[Nle]K-NH2; staple (Z) 3-10) | 11 | –
14 | CCCC[C@H](NC(=O)[C@H](Cc1cnc[nH]1)NC(=O)[C@H](C)NC(=O)[C@H](CCCC)NC(=O)[C@@H](NC(=O)[C@H](CCCCN)NC(=O)[C@@H]1CCCN1C(=O)[C@]1(C)CCC/C=C/CCCCCC[C@@](C)(NC(=O)[C@H](Cc2ccccc2)NC(=O)CN)C(=O)N[C@@H](CO)C(=O)N[C@@H]([C@@H](C)CC)C(=O)N[C@@H](CC(C)C)C(=O)N[C@@H](CCCCN)C(=O)N[C@@H](CCCCN)C(=O)N[C@@H](C(C)C)C(=O)N1)C(C)C)C(=O)N[C@@H](CCCCN)C(N)=O (H-GF[R8]SILKKV[S5]PKV[Nle]AH[Nle]K-NH2; staple (E) 3-10) | 20 | –
15 | CC[C@H](C)[C@@H]1NC(=O)[C@H](CCCCN)NC(=O)[C@H](CCCCN)NC(=O)[C@](C)(NC(=O)[C@H](CC(N)=O)NC(=O)[C@@H](N)C(C)C)CCCCCC/C=C/CCC[C@@](C)(C(=O)N[C@H](C(=O)N[C@@H](CCCCN)C(=O)N[C@H](C(=O)N[C@H](C(=O)N[C@@H](CCCCN)C(N)=O)C(C)C)C(C)C)[C@@H](C)CC)NC(=O)[C@H](CCCCN)NC(=O)CNC(=O)[C@H](CC(C)C)NC1=O (H-VN[R8]KKILGK[S5]IKVVK-NH2; staple (E) 3-10) | > 100 | –
16 | CC[C@H](C)[C@H](NC(=O)[C@]1(C)CCC/C=C\CCC[C@](C)(NC(=O)[C@H](CCCCN)NC(=O)[C@H](CCCCN)NC(=O)[C@H](Cc2c[nH]c3ccccc23)NC(=O)[C@H](CC(N)=O)NC(=O)[C@@H](N)C(C)C)C(=O)N[C@@H](CC(C)C)C(=O)NCC(=O)N[C@@H](CCCCN)C(=O)N1)C(=O)N[C@@H](CCCCN)C(=O)N[C@H](C(=O)N[C@H](C(=O)N[C@@H](CCCCN)C(N)=O)C(C)C)C(C)C (H-VNWKK[S5]LGK[S5]IKVVK-NH2; staple (Z) 6-10) | 31.3 | –
17 | H-GIGKFLHSAKKFGKAFVGEIMNS-NH2 | – | hemolysis at 1 h [10]: < 2%
18 | CC[C@H](C)[C@H](NC(=O)CN)C(=O)NCC(=O)N[C@@H](CCCCN)C(=O)N[C@@H](Cc1ccccc1)C(=O)N[C@@H](CC(C)C)C(=O)N[C@@H](Cc1cnc[nH]1)C(=O)N[C@@H](CO)C(=O)N[C@@H](C)C(=O)N[C@@H](CCCCN)C(=O)N[C@@H](CCCCN)C(=O)N[C@@H](Cc1ccccc1)C(=O)NCC(=O)N[C@@H](CCCCN)C(=O)N[C@@H](C)C(=O)N[C@@H](Cc1ccccc1)C(=O)N[C@H](C(=O)NCC(=O)N[C@@]1(C)CCC/C=C\CCC[C@@](C)(C(N)=O)NC(=O)[C@H](CC(N)=O)NC(=O)[C@H](CCSC)NC(=O)[C@H]([C@@H](C)CC)NC1=O)C(C)C (H-GIGKFLHSAKKFGKAFVG[S5]IMN[S5]-NH2; staple (Z) 19-23) | – | hemolysis at 1 h [10]: 100%
